How the values were obtained:
CEM-SS [1] = assay: Compound was tested in vitro for its anti-HIV activity in CEM-SS cells; format: functional, cell-based; settings: Homo sapiens
CEM-SS [2] = assay: Compound was tested in vitro for its cytotoxicity in CEM-SS cells; format: functional; settings: Homo sapiens

Cc1cn(C2CC3CC(C)OCC3(CO)O2)c(=O)[nH]c1=O (centres undefined)
IC50 (CEM-SS [1]): > 100 µM
CC50 (CEM-SS [2]): > 100 µM

Cc1cn(C2CC3CC(CI)OCC3(CO)O2)c(=O)[nH]c1=O (centres undefined)
IC50 (CEM-SS [1]): > 100 µM
CC50 (CEM-SS [2]): > 100 µM
